Among the test systems are COLO 205 colon; DU-145 prostate; HCC-2998 colon; HS 578T breast; MCF7 breast; NCI/ADR-RES ovarian; OVCAR-8 ovarian; SK-MEL-5 melanoma; SK-OV-3 ovarian; MALME-3M melanoma; SK-MEL-28 melanoma.
Assay in all cases: NCI anticancer screen, dose series, 48 h

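Protocol summary: plate cells (96-well), add compound at 5 concentrations, incubate 48 h, interpolate endpoints linearly. TGI denotes the concentration required for complete inhibition of growth.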 Bounds are passed on as bounds.

For the compound `C=C(C)[C@H]1C=C[C@@H](OC(=O)c2cccnc2)[C@@]23CO[C@@](C)([C@H](OC(=O)c4cccnc4)[C@@]4(OC(C)=O)C[C@H](C)[C@H](OCCC)[C@@H]4[C@H]2OC(C)=O)[C@H]13`, the TGI with COLO 205 colon, in the assay on DU-145 prostate, with HCC-2998 colon, in the assay on HS 578T breast, in the assay with MCF7 breast and in the assay on NCI/ADR-RES ovarian was over 15 µM in each case. In addition, the TGI in the assay with OVCAR-8 ovarian, with SK-MEL-5 melanoma and in the assay on SK-OV-3 ovarian was over 15 µM throughout.
Regarding `CN(NC(=O)c1cccs1)C1=NCCCCN1`, the TGI in the assay with COLO 205 colon, with HCC-2998 colon, with HS 578T breast, in the assay on MALME-3M melanoma, in the assay on MCF7 breast and in the assay on NCI/ADR-RES ovarian was over 100 µM in each case. For the same compound, the TGI with OVCAR-8 ovarian, in the assay with SK-MEL-28 melanoma, in the assay on SK-MEL-5 melanoma and with SK-OV-3 ovarian was over 100 µM in each case.
Turning to `NCCN1C(=O)CN=C(c2ccc(Cl)cc2)c2cc(Cl)ccc21`, the TGI with COLO 205 colon came to 38.7 µM; with DU-145 prostate it was 34.8 µM; with HCC-2998 colon, 31.8 µM; in the assay with HS 578T breast, 35.8 µM; in the assay on MALME-3M melanoma, 29.7 µM; with NCI/ADR-RES ovarian it was 32.8 µM. In addition, the TGI in the assay on OVCAR-8 ovarian was 32.2 µM; in the assay on SK-MEL-28 melanoma, over 100 µM; in the assay with SK-MEL-5 melanoma it was 31.4 µM; in the assay with SK-OV-3 ovarian, 47.6 µM.
Take `CCCCCCCCCCCCCCCCOCC(Cl)COP(=O)(O)OP(=O)(O)OCC1OC(n2cc(C)c(=O)[nH]c2=O)CC1O` (stereo unspecified): the TGI was over 100 µM in the assay with COLO 205 colon; over 100 µM in the assay with HCC-2998 colon; 86.4 µM in the assay with HS 578T breast; over 100 µM in the assay with MALME-3M melanoma; over 100 µM in the assay on MCF7 breast; over 100 µM with NCI/ADR-RES ovarian. Further, the TGI in the assay on OVCAR-8 ovarian, with SK-MEL-28 melanoma, in the assay on SK-MEL-5 melanoma and in the assay on SK-OV-3 ovarian was over 100 µM each time.
Turning to `O=C(CSc1nc2[nH]ncc2c(=O)[nH]1)c1ccc(Cl)cc1`, the TGI in the assay on COLO 205 colon, with HCC-2998 colon, in the assay on HS 578T breast, in the assay on MALME-3M melanoma, with MCF7 breast and in the assay on NCI/ADR-RES ovarian was over 100 µM in each case. In addition, the TGI with OVCAR-8 ovarian, in the assay on SK-MEL-28 melanoma, in the assay on SK-MEL-5 melanoma and in the assay with SK-OV-3 ovarian was over 100 µM each time.
Regarding `CC(=O)Nc1ccc2[nH]c(-c3cccc(Cl)c3)cc(=O)c2c1`, the TGI in the assay on COLO 205 colon was 39.9 µM; with HCC-2998 colon, 63.5 µM; in the assay on HS 578T breast it was over 100 µM; in the assay on MALME-3M melanoma it was over 100 µM; in the assay on MCF7 breast it was over 100 µM; in the assay with NCI/ADR-RES ovarian, over 100 µM. The TGI was over 100 µM in the assay on OVCAR-8 ovarian, over 100 µM in the assay on SK-MEL-28 melanoma, over 100 µM with SK-MEL-5 melanoma and 68.5 µM in the assay with SK-OV-3 ovarian.
In the case of `CC(C)=NNC=N/C(C#N)=C(\N)C#N`, the TGI in the assay with COLO 205 colon is over 100 µM; in the assay on DU-145 prostate, over 100 µM; in the assay with HCC-2998 colon, 1.21 µM; in the assay with MALME-3M melanoma, over 100 µM; in the assay on MCF7 breast, over 100 µM; in the assay on NCI/ADR-RES ovarian, over 100 µM. For the same compound, the TGI in the assay with OVCAR-8 ovarian, with SK-MEL-28 melanoma, in the assay on SK-MEL-5 melanoma and with SK-OV-3 ovarian was over 100 µM in each case.
Turning to `O=C(N=Nc1cccc(Cl)c1)NNc1cccc(Cl)c1`, the TGI worked out at 41.8 µM in the assay on DU-145 prostate; 28.9 µM in the assay on HCC-2998 colon; 39.6 µM with MALME-3M melanoma; 50.1 µM with OVCAR-8 ovarian; 41 µM with SK-MEL-28 melanoma; 38.4 µM in the assay on SK-MEL-5 melanoma.
Regarding `N#C/C(C(=O)Nc1ccc(Cl)cc1)=C(/N)N1CCCCC1`, the TGI with COLO 205 colon, in the assay with DU-145 prostate, in the assay with HCC-2998 colon, in the assay with MCF7 breast, in the assay on NCI/ADR-RES ovarian and in the assay on OVCAR-8 ovarian was over 100 µM in each case. For the same compound, the TGI with SK-MEL-28 melanoma, in the assay with SK-MEL-5 melanoma and with SK-OV-3 ovarian was over 100 µM each time.
As for `COc1cc(C2C(C#N)=C(N)OC3=C2CCS(=O)(=O)c2ccc(C)cc23)cc(OC)c1OC` (stereo unspecified), the TGI in the assay with COLO 205 colon, in the assay on DU-145 prostate, in the assay on HCC-2998 colon, in the assay on HS 578T breast, with MALME-3M melanoma and in the assay on NCI/ADR-RES ovarian was over 100 µM throughout. Also, the TGI in the assay with OVCAR-8 ovarian, in the assay with SK-MEL-28 melanoma and with SK-MEL-5 melanoma was over 100 µM throughout.
Regarding `O=C(c1ccccc1)c1ccc(-n2c3ccccc3c3ccc4c(c32)C(=O)C=CC4=O)cc1`, the TGI in the assay with COLO 205 colon was 25.9 µM; in the assay with DU-145 prostate, over 40.1 µM; with HCC-2998 colon it was 29.6 µM; in the assay on HS 578T breast, over 55.5 µM; with MCF7 breast it was 10 µM; in the assay on NCI/ADR-RES ovarian it was 60.5 µM. The TGI worked out at 27.2 µM in the assay with OVCAR-8 ovarian, 30.1 µM with SK-MEL-28 melanoma, 43 µM in the assay with SK-MEL-5 melanoma and 42.9 µM in the assay on SK-OV-3 ovarian.
For `CCOC(=O)[C@@]12C3C=CC(CC3)[C@]1(C(=O)c1ccccc1)C(=O)C(=O)N2c1ccccc1` (stereo partly specified), the TGI in the assay on COLO 205 colon, with DU-145 prostate, in the assay on HCC-2998 colon, in the assay with MALME-3M melanoma, with MCF7 breast and in the assay with NCI/ADR-RES ovarian was over 100 µM each time. Also, the TGI with OVCAR-8 ovarian, in the assay on SK-MEL-28 melanoma, in the assay on SK-MEL-5 melanoma and with SK-OV-3 ovarian was over 100 µM throughout.
Consider `CN(N)c1cc(=O)[nH]c(=O)[nH]1`, for which the TGI in the assay on DU-145 prostate, in the assay on HCC-2998 colon, with HS 578T breast, with MALME-3M melanoma, in the assay on NCI/ADR-RES ovarian and with OVCAR-8 ovarian was over 100 µM each time. Besides, the TGI with SK-MEL-28 melanoma, with SK-MEL-5 melanoma and in the assay on SK-OV-3 ovarian was over 100 µM throughout.
With `Oc1ccc(N=C2CCC(=C(c3ccccc3)c3ccc(Nc4ccc(O)cc4)cc3)CC2)cc1`, the TGI in the assay with COLO 205 colon, in the assay on DU-145 prostate, in the assay with HCC-2998 colon, in the assay with MCF7 breast, in the assay on NCI/ADR-RES ovarian and with OVCAR-8 ovarian was over 100 µM each time. Besides, the TGI with SK-MEL-28 melanoma, in the assay on SK-MEL-5 melanoma and in the assay on SK-OV-3 ovarian was over 100 µM in each case.

The values are drawn from PubChem BioAssay (NCI).
